In patent US10278957B2, “Opioid agonist peptides and uses thereof” (Protagonist Therapeutics, Inc., priority 2017, dated 2019):
pEC50: −log10 of the molar value.

Key:
[1] = biological target: T1, μ-opioid receptor (MOR) (Homo sapiens, UniProt P35372); test: MOR agonist cAMP assay (HitHunter cAMP, forskolin-stimulated); assay type: cell-based
T1 construct: host or cells: cAMP Hunter CHO-K1 OPRM1 Gαi cell line
Experimental: (§1) The HitHunter® cAMP chemiluminescent assay kit (DiscoveRx, Cat# 90-0075 SM25) was used to detect cAMP production in cAMP Hunter™ Gαi cell lines over expressing either Human-ORPM1 (Discoverx, Catalog# 95-0107C2) or Human-ORPD1 (DiscoveRx, Catalog# 95-0108C2). Opioid agonist binding to the Gαi receptors inhibits the intracellular cAMP accumulation induced by forskolin, which activates adenylate cyclase and increases intracellular levels of cAMP.
(§2) Cells were cultured in media consisting of Ham's F-12 Nutrient Mix (Life Technologies, Catalog#31765035), 10% FBS (Life Technologies, Catalog# 16140-071), 4 mM GlutaMAX (Life Technologies, Catalog#35050-061), […] (Life Technologies), 100 ug/ml of Penn-Strep (Life Technologies) and 0.5 mg/ml Geneticin (Life Technologies, Catalog# 10131-027). The cultures were maintained at 37° C. under 5% CO2.
(§3) In preparation for cAMP assay, the cells were seeded at a density of 300,000 cells/ml in 100 ul of media/well in 96-well microplate. Wells that were designated for cAMP standards were left empty.
(§4) Opioid agonist serial dilutions were prepared in separate dilution plate (11-point series of 3× (3-fold) dilution) in Cell Assay buffer, including 3× forskolin for Gαi target. For Hunter CHO-K1 OPRM1 or CHO-K1 OPRD1 Gαi Cell Lines, the final forskolin concentration was 20 uM.
(§5) 15 ul of each 3× opioid agonist serial dilution was added in the presence of forskolin in duplicate to the designated wells. The final concentration of each dilution was at 3× of the final screening concentration. The assay plate was incubated for 30 min, at 37° C. under 5% CO2.
(§6) Cellular cAMP concentrations were measured using the HitHunter cAMP Assay kit following the manufacturer's protocol. HitHunter cAMP assay is a gain-of-signal competitive immunoassay based on Enzyme Fragment Complementation (EFC) technology. The kit uses β-galactosidase (β-gal) enzyme split into Enzyme Donor (ED) and Enzyme Acceptor (EA). The cellular cAMP and ED-labelled cAMP compete for anti-cAMP antibody. […] When cellular cAMP level is high, it competes for the anti-cAMP antibody, thereby releasing ED-cAMP to complement with EA to produce a luminescent signal. The amount of signal is directly proportional to the amount of cAMP in cells and can be quantified using cAMP standards. The assay plates were read using a PerkinElmer Envision instrument to detect the chemiluminescence signal in each well (luminescence reader at 0.1 to 1 second/well). Data analysis was performed using Graphpad Prism 7.EC50 was calculated by nonlinear regression, using the four-parameter hill equation.

[2] = biological target: T2, δ-opioid receptor (DOR) (Homo sapiens, UniProt P41143); test: DOR agonist cAMP assay (HitHunter cAMP, forskolin-stimulated); assay type: cell-based
T2 construct: host or cells: cAMP Hunter CHO-K1 OPRD1 Gαi cell line
Experimental: as §1, §2, §3, §4, §5, §6

T1 sequence (P35372 whole entry): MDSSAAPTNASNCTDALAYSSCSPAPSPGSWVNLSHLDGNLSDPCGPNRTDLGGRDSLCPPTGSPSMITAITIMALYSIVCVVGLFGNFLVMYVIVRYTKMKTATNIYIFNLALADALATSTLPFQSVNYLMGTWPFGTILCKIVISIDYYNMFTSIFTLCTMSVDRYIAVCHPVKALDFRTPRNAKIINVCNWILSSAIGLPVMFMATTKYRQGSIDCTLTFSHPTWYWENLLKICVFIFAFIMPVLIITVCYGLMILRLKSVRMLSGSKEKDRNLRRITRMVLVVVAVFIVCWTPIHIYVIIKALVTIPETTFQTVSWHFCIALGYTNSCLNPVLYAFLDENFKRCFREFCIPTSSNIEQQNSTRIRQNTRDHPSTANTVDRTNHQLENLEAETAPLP
T2 sequence (P41143 whole entry): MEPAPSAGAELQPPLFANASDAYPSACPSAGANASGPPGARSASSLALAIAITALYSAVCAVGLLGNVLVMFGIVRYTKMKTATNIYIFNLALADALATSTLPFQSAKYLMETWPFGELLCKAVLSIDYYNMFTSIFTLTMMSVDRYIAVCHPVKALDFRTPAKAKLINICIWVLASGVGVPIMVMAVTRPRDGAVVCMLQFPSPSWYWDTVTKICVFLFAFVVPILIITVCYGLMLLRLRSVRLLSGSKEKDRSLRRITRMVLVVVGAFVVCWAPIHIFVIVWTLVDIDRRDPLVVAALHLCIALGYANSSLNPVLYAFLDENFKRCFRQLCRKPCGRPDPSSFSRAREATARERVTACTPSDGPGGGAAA

SMILES | pEC50 [1] | pEC50 [2]
Cc1cc(O)cc(C)c1C[C@H](N)C(=O)N[C@H](C)C(=O)NCC(=O)N[C@H](CC(=O)N(CC(N)=O)CC(F)(F)F)Cc1ccccc1 [compound 122] | > 9.00 | > 9.00
CCCCCCCCCCCCCCCCN(CC(N)=O)C(=O)C[C@H](Cc1ccccc1)NC(=O)CNC(=O)[C@@H](C)NC(=O)[C@@H](N)Cc1c(C)cc(O)cc1C [compound 125] | 8.00 to 9.00 | 8.00 to 9.00
CCCC[C@@H](C(=O)O)N(C)C(=O)C[C@H](Cc1ccc(I)cc1)NC(=O)CNC(=O)[C@@H](C)NC(=O)[C@@H](N)Cc1c(C)cc(C(N)=O)cc1C [compound 136] | > 9.00 | > 9.00
CCCC[C@@H](C(=O)O)N(C)C(=O)C[C@H](Cc1c[nH]c2ccccc12)NC(=O)CNC(=O)[C@@H](C)NC(=O)[C@@H](N)Cc1c(C)cc(C(N)=O)cc1C [compound 139] | > 9.00 | 8.00 to 9.00
CCCC[C@@H](C(=O)O)N(C)C(=O)C[C@H](Cc1cccc(C)c1)NC(=O)CNC(=O)[C@@H](C)NC(=O)[C@@H](N)Cc1c(C)cc(O)cc1C [compound 141] | > 9.00 | > 9.00
CCCC[C@@H](C(=O)O)N(C)C(=O)C[C@H](Cc1ccc(C)cc1)NC(=O)CNC(=O)[C@@H](C)NC(=O)[C@@H](N)Cc1c(C)cc(O)cc1C [compound 142] | 8.00 to 9.00 | > 9.00
CCCC[C@@H](C(=O)O)N(C)C(=O)C[C@H](Cc1ccccc1F)NC(=O)CNC(=O)[C@@H](C)NC(=O)[C@@H](N)Cc1c(C)cc(O)cc1C [compound 143] | > 9.00 | > 9.00
CCCC[C@@H](C(=O)O)N(C)C(=O)C[C@H](Cc1cccc(F)c1)NC(=O)CNC(=O)[C@@H](C)NC(=O)[C@@H](N)Cc1c(C)cc(O)cc1C [compound 144] | > 9.00 | > 9.00
CCCC[C@@H](C(=O)O)N(C)C(=O)C[C@H](Cc1ccc(F)cc1)NC(=O)CNC(=O)[C@@H](C)NC(=O)[C@@H](N)Cc1c(C)cc(O)cc1C [compound 145] | > 9.00 | > 9.00
CCCC[C@@H](C(=O)O)N(C)C(=O)C[C@H](Cc1ccccc1Br)NC(=O)CNC(=O)[C@@H](C)NC(=O)[C@@H](N)Cc1c(C)cc(O)cc1C [compound 146] | > 9.00 | > 9.00
CCCC[C@@H](C(=O)O)N(C)C(=O)C[C@H](Cc1ccc(I)cc1)NC(=O)CNC(=O)[C@@H](C)NC(=O)[C@@H](N)Cc1c(C)cc(O)cc1C [compound 150] | > 9.00 | > 9.00
CCCC[C@@H](C(=O)O)N(C)C(=O)C[C@H](Cc1cccc(Cl)c1)NC(=O)CNC(=O)[C@@H](C)NC(=O)[C@@H](N)Cc1c(C)cc(O)cc1C [compound 151] | > 9.00 | > 9.00
CCCC[C@@H](C(=O)O)N(C)C(=O)C[C@H](Cc1ccc(O)cc1)NC(=O)CNC(=O)[C@@H](C)NC(=O)[C@@H](N)Cc1c(C)cc(O)cc1C [compound 152] | > 9.00 | > 9.00
CCCC[C@@H](C(=O)O)N(C)C(=O)C[C@H](Cc1c[nH]c2ccccc12)NC(=O)CNC(=O)[C@@H](C)NC(=O)[C@@H](N)Cc1c(C)cc(O)cc1C [compound 153] | 8.00 to 9.00 | > 9.00
Cc1cc(O)cc(C)c1C[C@H](N)C(=O)N[C@H](C)C(=O)NCC(=O)N[C@H](CC(=O)N(C)[C@@H](CC1CCCCC1)C(=O)O)Cc1ccccc1 [compound 156] | > 9.00 | 8.00 to 9.00
Cc1cc(O)cc(C)c1C[C@H](N)C(=O)N[C@H](C)C(=O)NCC(=O)N[C@H](CC(=O)N(C)[C@@H](Cc1ccccc1)C(=O)O)Cc1ccccc1 [compound 158] | > 9.00 | > 9.00

SMILES | pEC50 [1] | pEC50 [2]
Cc1cc(O)cc(C)c1C[C@H](N)C(=O)N[C@H](C)C(=O)NCC(=O)N[C@H](CC(=O)N(C)[C@@H](Cc1ccc(O)cc1)C(=O)O)Cc1ccccc1 [compound 160] | > 9.00 | > 9.00
CCC[C@@H](C(=O)O)N(C)C(=O)C[C@H](Cc1ccccc1)NC(=O)CNC(=O)[C@@H](C)NC(=O)[C@@H](N)Cc1c(C)cc(O)cc1C [compound 162] | > 9.00 | > 9.00
CCCC[C@@H](C(=O)O)N(C)C(=O)C[C@H](Cc1cccc(C)c1)NC(=O)CNC(=O)[C@@H](C)NC(=O)[C@@H](N)Cc1c(C)cc(C(N)=O)cc1C [compound 164] | > 9.00 | > 9.00
CCCC[C@@H](C(=O)O)N(C)C(=O)C[C@H](Cc1ccc(O)cc1)NC(=O)CNC(=O)[C@@H](C)NC(=O)[C@@H](N)Cc1c(C)cc(C(N)=O)cc1C [compound 168] | 8.00 to 9.00 | > 9.00
Cc1cc(O)cc(C)c1C[C@H](N)C(=O)N[C@H](CC(=O)O)C(=O)NCC(=O)N[C@H](CC(=O)N(C)[C@@H](CC(C)C)C(=O)O)Cc1ccccc1 [compound 169] | > 9.00 | > 9.00
Cc1cc(O)cc(C)c1C[C@H](N)C(=O)N[C@H](CC(=O)O)C(=O)NCC(=O)N[C@H](CC(=O)N(C)[C@@H](C)C(=O)O)Cc1ccccc1 [compound 170] | > 9.00 | > 9.00
Cc1cc(O)cc(C)c1C[C@H](N)C(=O)N[C@H](CC(=O)O)C(=O)NCC(=O)N[C@H](CC(=O)N(C)[C@@H](Cc1c[nH]c2ccccc12)C(=O)O)Cc1ccccc1 [compound 171] | > 9.00 | > 9.00
CC[C@H](C)[C@@H](C(=O)O)N(C)C(=O)C[C@H](Cc1ccccc1)NC(=O)CNC(=O)[C@@H](CC(=O)O)NC(=O)[C@@H](N)Cc1c(C)cc(O)cc1C [compound 172] | > 9.00 | > 9.00
Cc1cc(O)cc(C)c1C[C@H](N)C(=O)N[C@H](CC(=O)O)C(=O)NCC(=O)N[C@H](CC(=O)N(C)[C@H](C(=O)O)C(C)C)Cc1ccccc1 [compound 173] | > 9.00 | > 9.00
CCC[C@@H](C(=O)O)N(C)C(=O)C[C@H](Cc1ccccc1)NC(=O)CNC(=O)[C@@H](CC(=O)O)NC(=O)[C@@H](N)Cc1c(C)cc(O)cc1C [compound 174] | > 9.00 | > 9.00
Cc1cc(O)cc(C)c1C[C@H](N)C(=O)N[C@H](CC(=O)O)C(=O)NCC(=O)N[C@H](CC(=O)N(C)[C@@H](CC1CCCCC1)C(=O)O)Cc1ccccc1 [compound 175] | > 9.00 | > 9.00
Cc1cc(O)cc(C)c1C[C@H](N)C(=O)N[C@H](CC(=O)O)C(=O)NCC(=O)N[C@H](CC(=O)N(C)[C@H](C(=O)O)c1ccccc1)Cc1ccccc1 [compound 176] | > 9.00 | > 9.00
Cc1cc(O)cc(C)c1C[C@H](N)C(=O)N[C@H](CC(=O)O)C(=O)NCC(=O)N[C@H](CC(=O)N(C)[C@@H](Cc1ccccc1)C(=O)O)Cc1ccccc1 [compound 177] | > 9.00 | > 9.00
CCCC[C@@H](C(=O)O)N(C)C(=O)C[C@H](Cc1ccccc1)NC(=O)CNC(=O)[C@@H](CC(=O)O)NC(=O)[C@@H](N)Cc1c(C)cc(O)cc1C [compound 178] | > 9.00 | > 9.00
Cc1cc(O)cc(C)c1C[C@H](N)C(=O)N[C@H](CC(=O)O)C(=O)NCC(=O)N[C@H](CC(=O)N(C)[C@@H](Cc1ccc(O)cc1)C(=O)O)Cc1ccccc1 [compound 180] | > 9.00 | > 9.00
CC[C@H](C)[C@@H](C(=O)O)N(C)C(=O)C[C@H](Cc1ccccc1)NC(=O)CNC(=O)[C@H](NC(=O)[C@@H](N)Cc1c(C)cc(O)cc1C)[C@H](C)O [compound 182] | > 9.00 | > 9.00
